Values quoted from earlier work in paper PMC3010278 (Journal of medicinal chemistry, 2010).

System: QR1
Conditions: in vivo

For `C[S+]([O-])CCCCN=C=S` (stereo not shown) [Compound 54, sulforaphane], the “QR1 induction in rat mammary gland” value is listed as “induce QR1”.
